Reference: ChEMBL document CHEMBL3044572, “Discovery of 2-(4-cyano-3-trifluoromethylphenyl amino)-4-(4-quinazolinyloxy)-6-piperazinyl(piperidinyl)-s-triazines as potential antibacterial agents” (2012)
Values after ≈ are worked out from the molar mass of the structure shown. Active and inactive are the calls of the source. The rule behind the calls is not given here.

Tests used:
[1] = test system: Mycobacterium tuberculosis; assay: Antimicrobial activity against Mycobacterium tuberculosis H37Rv by BACTEC MGIT method; assay type: functional; conditions: Mycobacterium tuberculosis, H37Rv
Shigella flexneri [2] = assay: Antimicrobial activity against Shigella flexneri MTCC 1457 by agar streak dilution method; assay type: functional
Pseudomonas aeruginosa [3] = assay: Antimicrobial activity against Pseudomonas aeruginosa MTCC 741 by paper disk diffusion method; assay type: functional
Pseudomonas aeruginosa [4] = assay: Antimicrobial activity against Pseudomonas aeruginosa MTCC 741 at 100 ug/ml by paper disk diffusion method; assay type: functional, organism-based
Staphylococcus aureus [5] = assay: Antimicrobial activity against Staphylococcus aureus MTCC 96 by agar streak dilution method; assay type: functional
Escherichia coli [6] = assay: Antimicrobial activity against Escherichia coli MTCC 739 by paper disk diffusion method; assay type: functional
Aspergillus niger [7] = assay: Antimicrobial activity against Aspergillus niger MTCC 282 by agar streak dilution method; assay type: functional
Candida albicans [8] = assay: Antimicrobial activity against Candida albicans MTCC 183 by paper-disk diffusion method; assay type: functional
Salmonella typhi [9] = assay: Antimicrobial activity against Salmonella enterica subsp. enterica serovar Typhi MTCC 733 by agar streak dilution method; assay type: functional
Bacillus cereus [10] = assay: Antimicrobial activity against Bacillus cereus MTCC 619 by paper disk diffusion method; assay type: functional
Bacillus cereus [11] = assay: Antimicrobial activity against Bacillus cereus MTCC 619 by agar streak dilution method; assay type: functional
Klebsiella pneumoniae [12] = assay: Antimicrobial activity against Klebsiella pneumoniae MTCC 109 by agar streak dilution method; assay type: functional
Pseudomonas aeruginosa [13] = assay: Antimicrobial activity against Pseudomonas aeruginosa MTCC 741 by agar streak dilution method; assay type: functional
Aspergillus fumigatus [14] = assay: Antimicrobial activity against Aspergillus fumigatus MTCC 343 by agar streak dilution method; assay type: functional
Aspergillus clavatus [15] = assay: Antimicrobial activity against Aspergillus clavatus MTCC 1323 by agar streak dilution method; assay type: functional
Klebsiella pneumoniae [16] = assay: Antimicrobial activity against Klebsiella pneumoniae MTCC 109 by paper disk diffusion method; assay type: functional
Aspergillus clavatus [17] = assay: Antimicrobial activity against Aspergillus clavatus MTCC 1323 by paper disk diffusion method; assay type: functional
Staphylococcus aureus [18] = assay: Antimicrobial activity against Staphylococcus aureus MTCC 96 by paper-disk diffusion method; assay type: functional
Aspergillus fumigatus [19] = assay: Antimicrobial activity against Aspergillus fumigatus MTCC 343 by paper-disk diffusion method; assay type: functional
Escherichia coli [20] = assay: Antimicrobial activity against Escherichia coli MTCC 739 by agar streak dilution method; assay type: functional
Proteus vulgaris [21] = assay: Antimicrobial activity against Proteus vulgaris MTCC 1771 by paper disk diffusion method; assay type: functional
[22] = test system: Mycobacterium tuberculosis; assay: Antimicrobial activity against Mycobacterium tuberculosis H37Rv by Lowenstein and Jensen method; assay type: functional; conditions: for MIC: Mycobacterium tuberculosis, H37Rv
Proteus vulgaris [23] = assay: Antimicrobial activity against Proteus vulgaris MTCC 1771 by agar streak dilution method; assay type: functional
Candida albicans [24] = assay: Antimicrobial activity against Candida albicans MTCC 183 by agar streak dilution method; assay type: functional
Salmonella typhi [25] = assay: Antimicrobial activity against Salmonella enterica subsp. enterica serovar Typhi MTCC 733 by paper disk diffusion method; assay type: functional
Shigella flexneri [26] = assay: Antimicrobial activity against Shigella flexneri MTCC 1457 by paper disk diffusion method; assay type: functional
[27] = test system: Mycobacterium tuberculosis; assay: Antimicrobial activity against Mycobacterium tuberculosis H37Rv at 100 ug/ml by BACTEC MGIT method; assay type: functional, organism-based
Aspergillus niger [28] = assay: Antimicrobial activity against Aspergillus niger MTCC 282 by paper-disk diffusion method; assay type: functional
Aspergillus clavatus [29] = assay: Antimicrobial activity against Aspergillus clavatus MTCC 1323 at 100 ug/ml by paper disk diffusion method; assay type: functional, organism-based
Aspergillus fumigatus [30] = assay: Antimicrobial activity against Aspergillus fumigatus MTCC 343 at 100 ug/ml by paper-disk diffusion method; assay type: functional, organism-based
Shigella flexneri [31] = assay: Antimicrobial activity against Shigella flexneri MTCC 1457 at 100 ug/ml by paper-disk diffusion method; assay type: functional, organism-based

| Structure (SMILES) | MIC [1] [µg/mL] | MIC (Staphylococcus aureus [5]) [µg/mL] | inhibition zone (IZ) (Escherichia coli [6]) [mm] | MIC (Aspergillus niger [7]) [µg/mL] | inhibition zone (IZ) (Candida albicans [8]) [mm] | MIC (Salmonella typhi [9]) [µg/mL] | inhibition zone (IZ) (Bacillus cereus [10]) [mm] | MIC (Bacillus cereus [11]) [µg/mL] | MIC (Klebsiella pneumoniae [12]) [µg/mL] | inhibition zone (IZ) (Klebsiella pneumoniae [16]) [mm] | inhibition zone (IZ) (Staphylococcus aureus [18]) [mm] | MIC (Escherichia coli [20]) [µg/mL] | inhibition zone (IZ) (Proteus vulgaris [21]) [mm] | inhibition (percent inhibition) [22] [%] | MIC [22] [µg/mL] | MIC (Proteus vulgaris [23]) [µg/mL] | MIC (Candida albicans [24]) [µg/mL] | inhibition zone (IZ) (Salmonella typhi [25]) [mm] | inhibition [27] | inhibition zone (IZ) (Aspergillus niger [28]) [mm] | further results |
| --- | --- | --- | --- | --- | --- | --- | --- | --- | --- | --- | --- | --- | --- | --- | --- | --- | --- | --- | --- | --- | --- |
| N#Cc1ccc(Nc2nc(Oc3ncnc4ccccc34)nc(N3CCN(c4ccccc4Cl)CC3)n2)cc1C(F)(F)F | > 6.25 | 12.5 (≈ 20.7 µM) | 22 | 50 (≈ 82.8 µM) | 25 | 6.25 (≈ 10.3 µM) | 24 | 50 (≈ 82.8 µM) | 100 (≈ 166 µM) | 23 | 26 | 100 (≈ 166 µM) | 24 | 97 | 25 (≈ 41.4 µM) | 25 (≈ 41.4 µM) | 12.5 (≈ 20.7 µM) | 26 | inactive | 22 | MIC (Shigella flexneri [2]): 12.5 µg/mL (≈ 20.7 µM); inhibition zone (IZ) (Pseudomonas aeruginosa [3]): 24 mm; inhibition zone (IZ) (Pseudomonas aeruginosa [4]): inactive; MIC (Pseudomonas aeruginosa [13]): 25 µg/mL (≈ 41.4 µM); MIC (Aspergillus fumigatus [14]): 12.5 µg/mL (≈ 20.7 µM); MIC (Aspergillus clavatus [15]): 50 µg/mL (≈ 82.8 µM); inhibition zone (IZ) (Aspergillus clavatus [17]): 22 mm; inhibition zone (IZ) (Aspergillus fumigatus [19]): 24 mm; inhibition zone (IZ) (Shigella flexneri [26]): 27 mm |
| N#Cc1ccc(Nc2nc(Oc3ncnc4ccccc34)nc(N3CCN(c4ncccn4)CC3)n2)cc1C(F)(F)F | > 6.25 | 25 (≈ 43.7 µM) | 23 | 100 (≈ 175 µM) | 22 | 50 (≈ 87.5 µM) | 25 | 50 (≈ 87.5 µM) | 100 (≈ 175 µM) | 20 | 23 | 100 (≈ 175 µM) | 21 | 96 | 200 (≈ 350 µM) | 100 (≈ 175 µM) | 100 (≈ 175 µM) | 22 | inactive | 22 | inhibition zone (IZ) (Aspergillus clavatus [29]): inactive; inhibition zone (IZ) (Pseudomonas aeruginosa [3]): 22 mm; inhibition zone (IZ) (Aspergillus fumigatus [30]): inactive; inhibition zone (IZ) (Shigella flexneri [31]): inactive; MIC (Pseudomonas aeruginosa [13]): 50 µg/mL (≈ 87.5 µM) |
| N#Cc1ccc(Nc2nc(Oc3ncnc4ccccc34)nc(N3CCN(Cc4ccccc4)CC3)n2)cc1C(F)(F)F | > 6.25 | 50 (≈ 85.7 µM) | 21 | 100 (≈ 171 µM) | 21 | 100 (≈ 171 µM) | 23 | 100 (≈ 171 µM) | 100 (≈ 171 µM) | 23 | 22 | 100 (≈ 171 µM) | 21 | 95 | 500 (≈ 857 µM) | 100 (≈ 171 µM) | 100 (≈ 171 µM) | 23 | inactive | 21 | MIC (Shigella flexneri [2]): 100 µg/mL (≈ 171 µM); inhibition zone (IZ) (Pseudomonas aeruginosa [4]): inactive; inhibition zone (IZ) (Aspergillus fumigatus [30]): inactive; MIC (Aspergillus clavatus [15]): 100 µg/mL (≈ 171 µM); inhibition zone (IZ) (Aspergillus clavatus [17]): 20 mm; inhibition zone (IZ) (Shigella flexneri [26]): 20 mm |
| CC(C)N1CCN(c2nc(Nc3ccc(C#N)c(C(F)(F)F)c3)nc(Oc3ncnc4ccccc34)n2)CC1 | > 6.25 | 25 (≈ 46.7 µM) | 27 | 100 (≈ 187 µM) | 23 | 50 (≈ 93.4 µM) | 23 | 50 (≈ 93.4 µM) | 50 (≈ 93.4 µM) | 22 | 25 | 12.5 (≈ 23.3 µM) | 24 | 97 | 50 (≈ 93.4 µM) | 25 (≈ 46.7 µM) | 50 (≈ 93.4 µM) | 23 | inactive | 22 | inhibition zone (IZ) (Pseudomonas aeruginosa [3]): 24 mm; inhibition zone (IZ) (Shigella flexneri [31]): inactive; MIC (Pseudomonas aeruginosa [13]): 12.5 µg/mL (≈ 23.3 µM); MIC (Aspergillus fumigatus [14]): 50 µg/mL (≈ 93.4 µM); MIC (Aspergillus clavatus [15]): 25 µg/mL (≈ 46.7 µM); inhibition zone (IZ) (Aspergillus clavatus [17]): 23 mm; inhibition zone (IZ) (Aspergillus fumigatus [19]): 23 mm |
| N#Cc1ccc(Nc2nc(Oc3ncnc4ccccc34)nc(N3CCN(c4ccccc4F)CC3)n2)cc1C(F)(F)F | > 6.25 | 6.25 (≈ 10.6 µM) | 24 | 3.12 (≈ 5.31 µM) | 26 | 12.5 (≈ 21.3 µM) | 26 | 6.25 (≈ 10.6 µM) | 25 (≈ 42.6 µM) | 24 | 27 | 50 (≈ 85.1 µM) | 23 | 98 | 12.5 (≈ 21.3 µM) | 25 (≈ 42.6 µM) | 12.5 (≈ 21.3 µM) | 26 | inactive | 26 | MIC (Shigella flexneri [2]): 25 µg/mL (≈ 42.6 µM); inhibition zone (IZ) (Pseudomonas aeruginosa [3]): 25 mm; inhibition zone (IZ) (Pseudomonas aeruginosa [4]): inactive; MIC (Pseudomonas aeruginosa [13]): 25 µg/mL (≈ 42.6 µM); MIC (Aspergillus fumigatus [14]): 25 µg/mL (≈ 42.6 µM); MIC (Aspergillus clavatus [15]): 25 µg/mL (≈ 42.6 µM); inhibition zone (IZ) (Aspergillus clavatus [17]): 24 mm; inhibition zone (IZ) (Aspergillus fumigatus [19]): 22 mm; inhibition zone (IZ) (Shigella flexneri [26]): 25 mm |
